Experiments:
[1] = test system: Human immunodeficiency virus 1; assay: Selectivity ratio of EC50 for antiviral activity against APV-resistant HIV1 selected after 4 passages to EC50 for antiviral activity against wild-type HIV1 3B; type: functional
[2] = test system: Human immunodeficiency virus 1; assay: Antiviral activity against HIV1 infected in SupT1 cells assessed as accumulation of integrated junction products after 48 hrs by Alu-PCR assay; type: functional, organism-based; conditions: Human immunodeficiency virus 1, SUP-T1, 48 h
[3] = test system: Human immunodeficiency virus 1; assay: Selectivity ratio of EC50 for antiviral activity against GS-9160-resistant HIV1 selected after 6 passages to EC50 for antiviral activity against wild-type HIV1 3B; type: functional
[4] = test system: Human immunodeficiency virus 1; assay: Selectivity ratio of EC50 for antiviral activity against 3TC-resistant HIV1 selected after 8 passages to EC50 for antiviral activity against wild-type HIV1 3B; type: functional
[5] = test system: Human immunodeficiency virus 1; assay: Selectivity ratio of EC50 for antiviral activity against EFV-resistant HIV1 selected after 7 passages to EC50 for antiviral activity against wild-type HIV1 3B; type: functional
[6] = test system: Human immunodeficiency virus 1; assay: Selectivity ratio of EC50 for antiviral activity against GS-9160-resistant HIV1 selected after 5 passages to EC50 for antiviral activity against wild-type HIV1 3B; type: functional
[7] = test system: Human immunodeficiency virus 1; assay: Selectivity ratio of EC50 for antiviral activity against APV-resistant HIV1 selected after 2 passages to EC50 for antiviral activity against wild-type HIV1 3B; type: functional
[8] = test system: Human immunodeficiency virus 1; assay: Selectivity ratio of EC50 for antiviral activity against 3TC-resistant HIV1 selected after 4 passages to EC50 for antiviral activity against wild-type HIV1 3B; type: functional
[9] = test system: Human immunodeficiency virus 1; assay: Selectivity ratio of EC50 for antiviral activity against GS-9160-resistant HIV1 selected after 9 passages to EC50 for antiviral activity against wild-type HIV1 3B; type: functional
[10] = Cytotoxicity against human SupT1 cells infected with HIV1 3B; type: cell-based, SUP-T1; conditions: SupT1 cells infected with HIV-1 3B
[11] = test system: Human immunodeficiency virus 1; assay: Antiviral activity against HIV1 infected in SupT1 cells assessed as accumulation of late RT products after 12 hrs; type: functional, organism-based; conditions: Human immunodeficiency virus 1, SUP-T1, 12 h
[12] = test system: Human immunodeficiency virus 1; assay: Selectivity ratio of EC50 for antiviral activity against EFV-resistant HIV1 selected after 3 passages to EC50 for antiviral activity against wild-type HIV1 3B; type: functional
[13] = test system: Human immunodeficiency virus 1; assay: Selectivity ratio of EC50 for antiviral activity against GS-9160-resistant HIV1 selected after 8 passages to EC50 for antiviral activity against wild-type HIV1 3B; type: functional
[14] = test system: Human immunodeficiency virus 1; assay: Antiviral activity against HIV1 3B infected in human MT-4 cells by two fold dilution method in presence of 10% FBS; type: functional, organism-based; conditions: Human immunodeficiency virus 1, 3B, MT4
[15] = Cytotoxicity against human uninfected MT2 cells by three fold dilution method in presence of 10% FBS
[16] = test system: Human immunodeficiency virus 1; assay: Antiviral activity against HIV1 3B infected in human MT-2 cells by two fold dilution method in presence of 10% FBS; type: functional, organism-based; conditions: Human immunodeficiency virus 1, 3B, MT2
[17] = Cytotoxicity against human MT4 cells infected with HIV1 3B by three fold dilution method in presence of 10% FBS; type: cell-based; conditions: MT4 cells infected with HIV-1 3B
[18] = test system: Human immunodeficiency virus 1; assay: Antiviral activity against HIV1 3B infected in human MT-2 cells by two fold dilution method in presence of 10% FBS, HSA and alpha1-AGP; type: functional, organism-based; conditions: Human immunodeficiency virus 1, 3B, MT2
[19] = test system: Human immunodeficiency virus 1; assay: Antiviral activity against 0.01 MOI HIV1 3B infected in human MT-2 cells by two fold dilution method in presence of 100% human serum; type: functional, organism-based; conditions: Human immunodeficiency virus 1, 3B, MT2
[20] = test system: Human immunodeficiency virus 1; assay: Antiviral activity against 0.001 MOI HIV1 BAL infected in human T lymphocyte cells by p24 antigen ELISA in presence of 10% FBS; type: functional, organism-based; conditions: Human immunodeficiency virus 1, BAL
[21] = test system: Human immunodeficiency virus 1; assay: Antiviral activity against HIV1 3B infected in SupT1 cells assessed as fold increase in viral 2-LTR circles accumulation after […] postinfection by TaqMan real-time PCR; type: functional, SUP-T1
[22] = test system: Human immunodeficiency virus 1; assay: Antiviral activity against 0.02 MOI HIV1 3B infected in human MT-2 cells by two fold dilution method in presence of 100% human serum; type: functional, organism-based; conditions: Human immunodeficiency virus 1, 3B, MT2
[23] = test system: Human immunodeficiency virus 1; assay: Antiviral activity against 0.001 MOI HIV1 BAL infected in human T lymphocyte cells by p24 antigen ELISA in presence of 10% FBS, HSA and alpha1-AGP; type: functional, organism-based; conditions: Human immunodeficiency virus 1, BAL
[24] = Cytotoxicity against human T lymphocyte cells uninfected by XTT method in presence of 10% FBS
[25] = test system: Human immunodeficiency virus 1; assay: Antiviral activity against 0.04 MOI HIV1 3B infected in human MT-2 cells by […] dilution method in presence of 100% human serum; conditions: Human immunodeficiency virus 1, 3B, MT2
[26] = test system: Human immunodeficiency virus 1; assay: Selectivity ratio of EC50 for antiviral activity against HIV1 harboring E92Q mutation in catalytic core domain of integrase to EC50 for antiviral activity against wild-type HIV1 3B; type: functional
[27] = test system: Human immunodeficiency virus 1; assay: Selectivity ratio of EC50 for antiviral activity against HIV1 harboring N155S mutation in catalytic core domain of integrase to EC50 for antiviral activity against wild-type HIV1 3B; type: functional
[28] = test system: Human immunodeficiency virus 1; assay: Selectivity ratio of EC50 for antiviral activity against NNRTI-resistant HIV1 harboring RTY181C mutant gene to EC50 for antiviral activity against wild-type HIV1 3B; type: functional
[29] = test system: Human immunodeficiency virus 1; assay: Selectivity ratio of EC50 for antiviral activity against NRTI-resistant HIV1 harboring RTK65R mutant gene to EC50 for antiviral activity against wild-type HIV1 3B; type: functional
[30] = test system: Human immunodeficiency virus 1; assay: Selectivity ratio of EC50 for antiviral activity against HIV1 harboring E92V mutation in catalytic core domain of integrase to EC50 for antiviral activity against wild-type HIV1 3B; type: functional
[31] = test system: Human immunodeficiency virus 1; assay: Selectivity ratio of EC50 for antiviral activity against HIV1 harboring G140S mutation in catalytic core domain of integrase to EC50 for antiviral activity against wild-type HIV1 3B; type: functional
[32] = test system: Human immunodeficiency virus 1; assay: Selectivity ratio of EC50 for antiviral activity against HIV1 harboring E138K and Q148K mutation in catalytic core domain of integrase to EC50 for antiviral activity against wild-type HIV1 3B; type: functional
[33] = test system: Human immunodeficiency virus 1; assay: Selectivity ratio of EC50 for antiviral activity against PI-resistant HIV1 harboring […], L90M mutant gene to EC50 for antiviral activity against wild-type HIV1 3B; type: functional
[34] = test system: Human immunodeficiency virus 1; assay: Selectivity ratio of EC50 for antiviral activity against HIV1 harboring L74M and E92V mutation in catalytic core domain of integrase to EC50 for antiviral activity against wild-type HIV1 3B; type: functional
[35] = test system: Human immunodeficiency virus 1; assay: Selectivity ratio of EC50 for antiviral activity against HIV1 harboring E92V and V151A mutation in catalytic core domain of integrase to EC50 for antiviral activity against wild-type HIV1 3B; type: functional
[36] = test system: Human immunodeficiency virus 1; assay: Selectivity ratio of EC50 for antiviral activity against HIV1 harboring E138K mutation in catalytic core domain of integrase to EC50 for antiviral activity against wild-type HIV1 3B; type: functional
[37] = test system: Human immunodeficiency virus 1; assay: Selectivity ratio of EC50 for antiviral activity against HIV1 harboring N155H mutation in catalytic core domain of integrase to EC50 for antiviral activity against wild-type HIV1 3B; type: functional
[38] = test system: Human immunodeficiency virus 1; assay: Selectivity ratio of EC50 for antiviral activity against HIV1 harboring V151A mutation in catalytic core domain of integrase to EC50 for antiviral activity against wild-type HIV1 3B; type: functional
[39] = test system: Human immunodeficiency virus 1; assay: Selectivity ratio of EC50 for antiviral activity against NNRTI-resistant HIV1 harboring RTK103N mutant gene to EC50 for antiviral activity against wild-type HIV1 3B; type: functional
[40] = test system: Human immunodeficiency virus 1; assay: Selectivity ratio of EC50 for antiviral activity against HIV1 harboring T66I mutation in catalytic core domain of integrase to EC50 for antiviral activity against wild-type HIV1 3B; type: functional
[41] = test system: Human immunodeficiency virus 1; assay: Selectivity ratio of EC50 for antiviral activity against HIV1 harboring L74M mutation in catalytic core domain of integrase to EC50 for antiviral activity against wild-type HIV1 3B; type: functional
[42] = test system: Human immunodeficiency virus 1; assay: Selectivity ratio of EC50 for antiviral activity against NRTI-resistant HIV1 harboring RTM184V mutant gene to EC50 for antiviral activity against wild-type HIV1 3B; type: functional
[43] = test system: Human immunodeficiency virus 1; assay: Selectivity ratio of EC50 for antiviral activity against PI-resistant HIV1 harboring […], V82A and L90M mutant gene to EC50 for antiviral activity against wild-type HIV1 3B; type: functional
[44] = test system: Human immunodeficiency virus 1; assay: Selectivity ratio of EC50 for antiviral activity against HIV1 harboring Q148K mutation in catalytic core domain of integrase to EC50 for antiviral activity against wild-type HIV1 3B; type: functional
[45] = test system: Human immunodeficiency virus 1; assay: Selectivity ratio of EC50 for antiviral activity against HIV1 harboring G140S and Q148H mutation in catalytic core domain of integrase to EC50 for antiviral activity against wild-type HIV1 3B; type: functional
[46] = test system: Human immunodeficiency virus 1; assay: Selectivity ratio of EC50 for antiviral activity against NRTI-resistant HIV1 harboring RT-6TAMs mutant gene to EC50 for antiviral activity against wild-type HIV1 3B; type: functional
[47] = test system: Human immunodeficiency virus 1; assay: Selectivity ratio of EC50 for antiviral activity against HIV1 harboring E92V, G140S and V151A mutation in catalytic core domain of integrase to EC50 for antiviral activity against wild-type HIV1 3B; type: functional

CC(C)CN(C[C@@H](O)[C@H](Cc1ccccc1)NC(=O)O[C@H]1CCOC1)S(=O)(=O)c1ccc(N)cc1
Ratio EC50 [1]: 8.7
EC50 [2]: > 1000 nM
Ratio EC50 [3]: 1.5
Ratio EC50 [4]: 0.9
Ratio EC50 [5]: 1.6
Ratio EC50 [6]: 1
Ratio EC50 [7]: 3.4
Ratio EC50 [8]: 1.6
Ratio EC50 [9]: 1.5
CC50 [10]: 96000 nM
EC50 [11]: > 1000 nM
Ratio EC50 [12]: 1.2
Ratio EC50 [13]: 4

Cc1nnc(C(=O)NC(C)(C)c2nc(C(=O)NCc3ccc(F)cc3)c(O)c(=O)n2C)o1
EC50 [14]: 8 nM
CC50 [15]: > 100000 nM
EC50 [16]: 3 nM
CC50 [17]: 58200 nM
EC50 [18]: 18 nM

COc1cc2c(cc1Cc1cccc(Cl)c1F)c(=O)c(C(=O)O)cn2[C@@H](CO)C(C)C
EC50 [14]: 0.17 nM
CC50 [15]: 8000 nM
EC50 [19]: 83 nM
EC50 [20]: 0.2 nM
EC50 [16]: 0.6 nM
EC50 [2]: 0.3 nM
fold change (FC) [21]: 2.3
EC50 [22]: 121 nM
EC50 [23]: 16 nM
CC50 [10]: 5300 nM
CC50 [17]: 4000 nM
EC50 [11]: > 1000 nM
CC50 [24]: 40000 nM
EC50 [18]: 24 nM
EC50 [25]: 207 nM

CC(C)c1nc(COC(N)=O)n(Cc2ccncc2)c1Sc1cc(Cl)cc(Cl)c1 [CAPRAVIRINE]
Ratio EC50 [26]: 1
Ratio EC50 [27]: 6
Ratio EC50 [28]: 89
Ratio EC50 [29]: 0.4
Ratio EC50 [30]: 3
Ratio EC50 [31]: 2
Ratio EC50 [32]: 3
Ratio EC50 [33]: 1
Ratio EC50 [34]: 3
EC50 [16]: 0.2 nM
Ratio EC50 [35]: 2
Ratio EC50 [36]: 3
Ratio EC50 [37]: 6
Ratio EC50 [38]: 4
Ratio EC50 [39]: 0
Ratio EC50 [40]: 2
Ratio EC50 [41]: 1
Ratio EC50 [42]: 1
Ratio EC50 [43]: 1
Ratio EC50 [44]: 1
Ratio EC50 [45]: 0.2
Ratio EC50 [46]: 762
Ratio EC50 [47]: 3
